Test results reported in ChEMBL document CHEMBL5346860, “Cancer multidrug-resistance reversal by ABCB1 inhibition: A recent update” (Eur J Med Chem, 2022).

Tests used:
[1] = Antiproliferative activity against human Flp-In-293 cells expressing ABCB1 assessed as cell growth inhibition incubated for 72 hrs by SRB assay; format: toxicity, cell-based
[2] = target: T1, ATP-dependent translocase ABCB1 (Homo sapiens, UniProt P08183); test: Inhibition of ABCB1 in human HEK293 cells; format: cell-based
[3] = test system: HeLa S3; test: cells; conditions: Homo sapiens, HeLa S3, 72 h
Description: Antiproliferative activity against drug-sensitive human HeLaS3 cells assessed as cell growth inhibition incubated for 72 hrs by SRB assay

[4] = cells; conditions: Homo sapiens, KBVIN, 72 h
Description: Antiproliferative activity against multidrug-resistant human KB-VIN cells assessed as cell growth inhibition incubated for 72 hrs by SRB assay

[5] = Antiproliferative activity against daunorubicin-resistant human EPG85-257 cells incubated for 72 hrs by annexin-V-PI staining based flow cytometry; format: functional, EPG85-257RDB
[6] = cells; conditions: Homo sapiens, EPP85-181RDB, 72 h
Description: Antiproliferative activity against daunorubicin-resistant human EPP85-181 cells incubated for 72 hrs by annexin-V-PI staining based flow cytometry

[7] = test system: P388/ADR; test: Reversal of ABCB1 mediated doxorubicin-resistance in mouse P388/ADR cells assessed as cell growth inhibition incubated for 48 hrs by MTT assay; format: functional, cell-based
[8] = test system: P388/ADR; test: Potency index, ratio of verapamil IC50 to compound IC50 for reversal of ABCB1 mediated doxorubicin-resistance in mouse P388/ADR cells assessed as cell growth inhibition incubated for 48 hrs by MTT assay; format: functional
[9] = target: T1, ATP-dependent translocase ABCB1; test: Inhibition of ABCB1 in human HEK293 cells in the presence of doxorubicin; format: cell-based
[10] = Reversal of drug resistance in paclitaxel-resistant human TOV-21G cells assessed as fold change in paclitaxel IC50 in presence of paclitaxel; format: functional, paclitaxel-resistant human TOV-21G cell
[11] = Reversal of drug resistance in paclitaxel-resistant human OVCAR-3 cells assessed as fold decrease in paclitaxel IC50 in presence of paclitaxel; format: functional, paclitaxel-resistant human OVCAR-3 cell
[12] = target: T1, ATP-dependent translocase ABCB1; test: Inhibition of ABCB1 in multi-drug resistance human HL-60 cells assessed as increase in daunorubicin accumulation; format: cell-based
[13] = test system: HL-60; test: Antiproliferative activity against human HL-60 cells assessed as inhibition of cell survival by MTT assay; format: functional; conditions: read-out: LC50 (the source's name)
[14] = test system: U-937; test: Antiproliferative activity against human U-937 cells assessed as inhibition of cell survival by MTT assay; format: functional; conditions: read-out: LC50 (the source's name)
[15] = Antiproliferative activity against human HaCaT cells assessed as inhibition of cell survival by MTT assay; format: toxicity, cell-based; conditions: read-out: LC50 (the source's name)
[16] = Antiproliferative activity against human BJ cells assessed as inhibition of cell survival by MTT assay; format: toxicity, cell-based; conditions: read-out: LC50 (the source's name)
[17] = test system: SH-SY5Y; test: Antiproliferative activity against human SH-SY5Y cells assessed as inhibition of cell survival by MTT assay; format: functional; conditions: read-out: LC50 (the source's name)
[18] = test system: HEK293; test: Antiproliferative activity against human HEK293 cells assessed as inhibition of cell survival by MTT assay; format: functional; conditions: read-out: LC50 (the source's name)
[19] = test system: A549/TR; test: Antiproliferative activity against human A549/Taxol cells overexpressing ABCB1 assessed as cell growth inhibition by MTT assay; format: functional, cell-based
[20] = test system: A2780/Taxol; test: Antiproliferative activity against human A2780/Taxol cells overexpressing ABCB1 assessed as cell growth inhibition by MTT assay; format: functional, cell-based
[21] = test system: A2780/Taxol; test: Potentiation of paclitaxel induced antiproliferative activity against human A2780/Taxol cells overexpressing ABCB1 assessed as fold reduction in paclitaxel IC50 by MTT assay relative to control; format: functional
[22] = test system: A549/TR; test: Potentiation of paclitaxel induced antiproliferative activity against human A549/Taxol cells overexpressing ABCB1 assessed as fold reduction in paclitaxel IC50 by MTT assay relative to control
[23] = test system: 4T1; test: Antitumor activity against mouse 4T1 cells implanted in Balb/c mouse assessed as tumor growth inhibition at 4 mg/kg administered once for every two days measured after 15 days by immunohistochemical analysis relative to control; format: functional; conditions: 4T1, 360 h, time 15 day
[24] = test system: ADR5000 cell line; test: Antitumor activity against human CEM/ADR5000 cells assessed as fold increase in doxorubicin accumulation; format: functional

T1 sequence (P08183 whole entry): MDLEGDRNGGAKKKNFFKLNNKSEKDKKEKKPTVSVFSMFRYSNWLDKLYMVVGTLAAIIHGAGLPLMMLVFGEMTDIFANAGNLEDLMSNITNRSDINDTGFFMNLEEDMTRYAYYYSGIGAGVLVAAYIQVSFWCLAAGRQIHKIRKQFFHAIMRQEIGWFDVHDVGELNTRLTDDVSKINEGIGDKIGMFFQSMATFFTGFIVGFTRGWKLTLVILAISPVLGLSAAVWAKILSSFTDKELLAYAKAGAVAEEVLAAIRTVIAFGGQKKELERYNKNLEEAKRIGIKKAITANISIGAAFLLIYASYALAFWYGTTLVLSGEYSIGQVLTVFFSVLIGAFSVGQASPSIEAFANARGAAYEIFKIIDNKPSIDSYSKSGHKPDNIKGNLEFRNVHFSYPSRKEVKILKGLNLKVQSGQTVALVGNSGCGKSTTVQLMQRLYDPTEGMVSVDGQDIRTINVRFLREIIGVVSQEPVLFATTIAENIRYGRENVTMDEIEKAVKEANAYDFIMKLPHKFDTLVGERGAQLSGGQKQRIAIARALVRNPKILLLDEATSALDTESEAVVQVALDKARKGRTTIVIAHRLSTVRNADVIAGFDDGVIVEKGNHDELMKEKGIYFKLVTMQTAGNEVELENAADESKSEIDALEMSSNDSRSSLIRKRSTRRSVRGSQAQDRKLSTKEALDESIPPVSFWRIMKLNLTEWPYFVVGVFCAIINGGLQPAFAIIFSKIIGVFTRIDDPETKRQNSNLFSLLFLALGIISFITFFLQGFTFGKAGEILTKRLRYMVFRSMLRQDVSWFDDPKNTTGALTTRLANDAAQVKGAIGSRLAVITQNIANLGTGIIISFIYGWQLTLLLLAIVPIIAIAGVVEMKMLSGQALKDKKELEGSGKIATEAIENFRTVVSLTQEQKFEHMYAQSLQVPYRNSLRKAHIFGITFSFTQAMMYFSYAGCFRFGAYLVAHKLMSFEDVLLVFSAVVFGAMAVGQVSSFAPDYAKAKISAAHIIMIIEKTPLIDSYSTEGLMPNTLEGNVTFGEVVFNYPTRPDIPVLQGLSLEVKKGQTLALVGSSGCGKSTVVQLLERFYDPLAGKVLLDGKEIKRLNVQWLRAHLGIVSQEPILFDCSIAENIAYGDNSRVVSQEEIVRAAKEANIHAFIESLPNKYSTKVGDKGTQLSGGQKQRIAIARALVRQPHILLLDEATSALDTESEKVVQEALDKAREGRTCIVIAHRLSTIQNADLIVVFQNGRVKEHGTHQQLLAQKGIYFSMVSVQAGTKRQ

## COc1cccc2c1C(=O)c1c(O)c3c(c(O)c1C2=O)C[C@@](O)(C(=O)CO)C[C@@H]3O[C@H]1C[C@H](N)[C@H](O)[C@H](C)O1 [DOXORUBICIN]
[1]
  IC50 at 72 h: < 40 µM
[2]
  IC50: 0.504 µM
[3]
  IC50: < 40 µM
[4]
  IC50: < 40 µM

## COc1cc([C@@H]2c3cc4c(cc3[C@@H](O[C@@H]3O[C@@H]5CO[C@@H](C)O[C@H]5[C@H](O)[C@H]3O)[C@H]3COC(=O)[C@H]23)OCO4)cc(OC)c1O [ETOPOSIDE]
[5]
  IC5: 6.2 µM
[6]
  IC50: 62 µM

## COc1ccc(CCN(C)CCCOc2ccc(S(=O)(=O)c3c(C(C)C)cn4ccccc34)cc2)cc1OC [FANTOFARONE]
[7]
  IC50: 30 µM
[8]
  Ratio IC50: 4.5

## COc1ccc2cc1Oc1ccc(cc1)C[C@H]1c3cc(c(OC)cc3CCN1C)Oc1c(OC)c(OC)c(OC)c3c1[C@H](C2)N(C)CC3 [HERNANDEZINE]
[9]
  IC50: 0.025 µM

## CS(=O)(=O)CCNCc1ccc(-c2ccc3ncnc(Nc4ccc(OCc5cccc(F)c5)c(Cl)c4)c3c2)o1 [LAPATINIB]
[10]
  fold change (FC): 20.7
[11]
  fold change (FC): 6.2

## CO[C@@H]1[C@H](N(C)C(=O)c2ccccc2)C[C@H]2O[C@]1(C)n1c3ccccc3c3c4c(c5c6ccccc6n2c5c31)C(=O)NC4 [MIDOSTAURIN]
[12]
  IC50: 0.068 µM

## Cc1cn(-c2cc(NC(=O)c3ccc(C)c(Nc4nccc(-c5cccnc5)n4)c3)cc(C(F)(F)F)c2)cn1 [NILOTINIB]
[13]
  CC50: 1.7 µM
[14]
  CC50: 2.3 µM
[15]
  CC50: 3.9 µM
[16]
  CC50: 5.6 µM
[17]
  CC50: 4.2 µM
[18]
  CC50: 5.9 µM

## COc1ccc(-c2cc(=O)c3c(OC)c(OC)c(OC)c(OC)c3o2)cc1OC [NOBILETIN]
[19]
  IC50: 9 µM
[20]
  IC50: 9 µM
[21]
  fold change (FC): 15.92
[22]
  fold change (FC): 15.92

## CC(=O)O[C@H]1C(=O)[C@@]2(C)[C@H]([C@H](OC(=O)c3ccccc3)[C@]3(O)C[C@H](OC(=O)[C@H](O)[C@@H](NC(=O)c4ccccc4)c4ccccc4)C(C)=C1C3(C)C)[C@]1(OC(C)=O)CO[C@@H]1C[C@@H]2O [PACLITAXEL]
[1]
  IC50 at 72 h: < 40 µM
[3]
  IC50: < 40 µM
[4]
  IC50: < 40 µM

## C=CC(=O)N1CCC(Oc2cc3c(Nc4ccc(Cl)c(Cl)c4F)ncnc3cc2OC)CC1 [POZIOTINIB]
[10]
  fold change (FC): 20.7
[11]
  fold change (FC): 6.2

## CC(=O)O[C@@H]1C[C@H](O)[C@@]23CO[C@@H](O)[C@]1(C)[C@@H]2C[C@@H](O)[C@]1(C)[C@@H]3C(=O)[C@H](OC(C)=O)[C@@]2(C)[C@H](c3ccoc3)C[C@H]3O[C@]321 [TOOSENDANIN]
[23]
  inhibition in vivo at 4 mg/kg: 90%

## COc1ccc(CCN(C)CCCC(C#N)(c2ccc(OC)c(OC)c2)C(C)C)cc1OC (configuration not stated) [VERAPAMIL]
[24]
  fold change (FC): 4.7

## CC[C@]1(O)C[C@H]2CN(CCc3c([nH]c4ccccc34)[C@@](C(=O)OC)(c3cc4c(cc3OC)N(C=O)[C@H]3[C@@](O)(C(=O)OC)[C@H](OC(C)=O)[C@]5(CC)C=CCN6CC[C@]43[C@@H]65)C2)C1 [VINCRISTINE]
[1]
  IC50 at 72 h: < 40 µM
[3]
  IC50: < 40 µM
[4]
  IC50: < 40 µM
